This is an account of results in patent US6974870B2, “Substituted 3-amino-thieno [2,3-b]pyridine-2-carboxylic acid amide compounds and processes for preparing and their uses” (Boehringer Ingelheim Phamaceuticals, Inc., priority 2002, dated 2005).

Molecules are shown by their SMILES.

The target of one data set is T1, human IKKβ (Homo sapiens, UniProt O14920).
T1 construct: FLAG (N)
T1 sequence (O14920 1-756): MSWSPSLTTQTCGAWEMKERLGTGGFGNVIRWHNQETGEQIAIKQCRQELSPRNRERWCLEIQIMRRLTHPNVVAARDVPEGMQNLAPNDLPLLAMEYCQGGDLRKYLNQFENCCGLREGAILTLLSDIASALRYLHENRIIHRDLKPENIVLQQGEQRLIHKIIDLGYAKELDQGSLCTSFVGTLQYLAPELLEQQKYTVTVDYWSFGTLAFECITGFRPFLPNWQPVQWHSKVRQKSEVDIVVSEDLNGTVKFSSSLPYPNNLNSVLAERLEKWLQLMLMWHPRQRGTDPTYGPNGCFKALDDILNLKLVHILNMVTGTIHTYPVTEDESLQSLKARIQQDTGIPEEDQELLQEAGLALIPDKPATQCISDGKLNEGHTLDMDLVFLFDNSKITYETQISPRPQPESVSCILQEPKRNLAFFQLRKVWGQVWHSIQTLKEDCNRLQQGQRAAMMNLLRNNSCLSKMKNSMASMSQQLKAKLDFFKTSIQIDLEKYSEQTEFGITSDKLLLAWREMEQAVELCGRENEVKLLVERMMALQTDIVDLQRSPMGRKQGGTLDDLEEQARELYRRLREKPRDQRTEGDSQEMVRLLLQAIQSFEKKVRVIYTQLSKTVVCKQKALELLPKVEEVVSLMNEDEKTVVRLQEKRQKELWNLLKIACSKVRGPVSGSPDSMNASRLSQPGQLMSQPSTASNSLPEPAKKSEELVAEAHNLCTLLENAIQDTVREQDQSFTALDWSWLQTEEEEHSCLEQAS
As to the kind of experiment: IKKβ kinase inhibition assay (phosphorylation of IκBα substrate, 33P-ATP). The format is biochemical. As to conditions: flag-tagged human IKKβ 0.9 μg/ml, GST-IκBα (1-54) 53 μg/ml, 250 nM ATP, 1 hour at 25° C. The method, boiled down:
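N-terminally Flag-tagged human IKKα (3.6 μg/ml) or IKKβ (0.9 μg/ml) phosphorylating GST-IκBα(1-54) (245 or 53 μg/ml respectively), 250 nM ATP plus [33P]ATP, pH 7.5 HEPES with Mg2+/Mn2+, 2% DMSO; 5 min compound preincubation, 1 h at 25 °C.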

Another data set concerns the target T2, human IKKα (Homo sapiens, UniProt O15111).
T2 construct: FLAG (N)
T2 sequence (O15111 1-745): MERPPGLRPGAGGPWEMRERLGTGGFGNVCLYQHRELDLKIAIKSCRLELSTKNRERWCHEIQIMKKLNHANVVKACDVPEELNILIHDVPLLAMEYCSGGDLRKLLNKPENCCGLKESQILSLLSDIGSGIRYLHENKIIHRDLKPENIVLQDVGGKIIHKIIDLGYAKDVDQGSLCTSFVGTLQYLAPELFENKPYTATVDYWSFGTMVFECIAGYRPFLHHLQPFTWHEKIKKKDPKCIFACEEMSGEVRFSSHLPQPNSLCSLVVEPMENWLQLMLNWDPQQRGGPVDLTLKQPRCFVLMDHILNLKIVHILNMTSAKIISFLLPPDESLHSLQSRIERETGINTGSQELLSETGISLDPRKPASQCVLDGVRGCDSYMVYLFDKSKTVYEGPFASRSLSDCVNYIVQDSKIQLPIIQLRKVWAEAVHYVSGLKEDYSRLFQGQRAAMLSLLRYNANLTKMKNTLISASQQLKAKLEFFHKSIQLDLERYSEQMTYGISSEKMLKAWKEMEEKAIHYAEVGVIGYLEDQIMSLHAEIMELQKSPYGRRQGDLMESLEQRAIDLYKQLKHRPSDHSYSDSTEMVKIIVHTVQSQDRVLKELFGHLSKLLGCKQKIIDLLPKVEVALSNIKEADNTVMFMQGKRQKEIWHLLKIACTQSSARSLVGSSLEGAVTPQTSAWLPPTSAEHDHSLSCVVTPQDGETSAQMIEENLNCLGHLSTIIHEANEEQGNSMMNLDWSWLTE
As to the kind of experiment: IKKα kinase inhibition assay (phosphorylation of IκBα substrate, 33P-ATP). In kind it is biochemical. To be noted: flag-tagged human IKKα 3.6 μg/ml, GST-IκBα (1-54) 245 μg/ml, 250 nM ATP, 1 hour at 25° C. The protocol: The inhibition of IKKα and IKKβ by the compounds of the present invention was determined with the following assay that measures the phosphorylation of the IκBα substrate by the respective kinases. The enzymes used in the assay were N-terminally flag-tagged versions of the human IKKβ or IKKα and the substrate was a GST fusion protein with IκBα (amino acids 1-54).
The reaction mixtures (60 μl) contained 20 mM HEPES pH 7.5, 10 mM MgCl2, 2 mM MnCl2, 100 mM NaCl, 100 μM Na3VO4, 20 mM β-glycerophosphate, 1 mM DTT, 2% DMSO, 250 nM ATP, 0.4 nM [^33P]ATP (specific activity, 3000 Ci/mmol), IκBα substrate, IKK enzyme and test compound. The reaction mixtures contained either 3.6 μg/ml IKKα and 245 μg/ml IκBα or 0.9 μg/ml IKKβ and 53 μg/ml IκBα.
Reactions were initiated by adding a solution of IκBα substrate and ATP to polypropylene plates containing IKK enzyme that was pre-incubated for 5 minutes with test compound. Then the reaction mixtures were incubated for 1 hour at 25° C., placed on ice and quenched by the addition of 150 μl 10% trichloroacetic acid and 5% disodium pyrophosphate. After mixing, the entire contents of the quenched reaction mixtures were transferred to a pre-wetted Packard UniFilter filtration plate, aspirated and washed 6 times with 250 μl of ddH2O using the Packard Filtermate Harvester. Filtration plates were then air dried, supplemented with 40 μl of Microscint 20 scintillation fluid and the ^33P-labeled reaction products were quantified using the Packard TopCount scintillation counter.
Compounds were tested in three-fold serial dilutions and inhibitor concentrations to achieve 50% inhibition of enzyme activity (i.e., IC50) were derived from dose-reponse curves using SAS software (SAS Institute, Cary N.C.). A non-linear regression analysis based on the Hill equation was applied to the percent inhibition versus concentration data. In all cases, compound concentrations were verified by HPLC.

As to `CNC1CCN(c2cc(SC)c3c(N)c(C(N)=O)sc3n2)CC1` [3-Amino-6-(4-methylamino-piperidin-1-yl)-4-methylsulfanyl-thieno[2,3-b]pyridine-2-carboxylic acid amide], the figures for the IC50 at human IKKβ and against human IKKα were < 1 µM and ≤ 10 µM, respectively.

In the case of `CNC1CCN(c2cc(C(F)(F)F)c3c(N)c(C(N)=O)sc3n2)CC1` [3-Amino-6-(4-methylamino-piperidin-1-yl)-4-trifluoromethyl-thieno[2,3-b]pyridine-2-carboxylic acid amide], the IC50 is < 1 µM against human IKKβ and ≤ 10 µM against human IKKα.

As to `CCCc1cc(N2CCC(NCC(O)c3ccc(-c4nccn4C)cc3)CC2)nc2sc(C(N)=O)c(N)c12` (stereo not shown) [3-Amino-6-(4-{2-hydroxy-2-[4-(1-methyl-1H-imidazol-2-yl)-phenyl]-ethylamino}-piperidin-1-yl)-4-propyl-thieno[2,3-b] pyridine-2-carboxylic acid amide], the IC50 against human IKKβ is < 1 µM; against human IKKα, ≤ 10 µM.

In the case of `CCCc1cc(N2CCC(NCC(=O)N3CCC(O)CC3)CC2)nc2sc(C(N)=O)c(N)c12` [3-Amino-6-{4-[2-(4-hydroxy-piperidin-1-yl)-2-oxo-ethylamino]-piperidin-1-yl}-4-propyl-thieno[2,3-b] pyridine-2-carboxylic acid amide], the figures for the IC50 against human IKKβ and against human IKKα were < 1 µM and ≤ 10 µM, respectively.

Take `CCCc1cc(N2CCC(NCC(O)c3ccc(-n4ccnc4)cc3)CC2)nc2sc(C(N)=O)c(N)c12` (stereo not shown) [3-Amino-6-{4-[2-hydroxy-2-(4-imidazol-1-yl-phenyl)-ethylamino]-piperidin-1-yl}-4-propyl-thieno[2,3-b] pyridine-2-carboxylic acid amide]: the values for the IC50 on human IKKβ and against human IKKα were < 1 µM and ≤ 10 µM, respectively.

As to `NC(=O)c1sc2nc(N3CCC(NCC(O)c4ccc(-c5cnccn5)cc4)CC3)cc(C(F)(F)F)c2c1N` (stereo not shown) [3-Amino-6-{4-[2-hydroxy-2-(4-pyrazin-2-yl-phenyl)-ethylamino]-piperidin-1-yl}-4-trifluoromethyl-thieno[2,3-b]pyridine-2-carboxylic acid amide], the IC50 against human IKKβ is < 1 µM; at human IKKα, ≤ 10 µM.

As for `CCCc1cc(N2CCC(NCC(O)c3ccc(-c4cccnc4)cc3)CC2)nc2sc(C(N)=O)c(N)c12` (stereo not shown) [3-Amino-6-{4-[2-hydroxy-2-(4-pyridin-3-yl-phenyl)-ethylamino]-piperidin-1-yl}-4-propyl-thieno[2,3-b] pyridine-2-carboxylic acid amide], the values for the IC50 at human IKKβ and against human IKKα were < 1 µM and ≤ 10 µM, respectively.

Turning to `CCCc1cc(N2CCC(NCC(O)c3ccc(-c4nccs4)cc3)CC2)nc2sc(C(N)=O)c(N)c12` (stereo not shown) [3-Amino-6-{4-[2-hydroxy-2-(4-thiazol-2-yl-phenyl)-ethylamino]-piperidin-1-yl}-4-propyl-thieno[2,3-b]pyridine-2-carboxylic acid amide], the IC50 is < 1 µM at human IKKβ and ≤ 10 µM at human IKKα.

`NC(=O)c1sc2nc(N3CCC(NCC(O)c4ccc(-c5nccs5)cc4)CC3)cc(C(F)(F)F)c2c1N` (stereo not shown) [3-Amino-6-{4-[2-hydroxy-2-(4-thiazol-2-yl-phenyl)-ethylamino]-piperidin-1-yl}-4-trifluoromethyl-thieno[2,3-b]pyridine-2-carboxylic acid amide]: the IC50 against human IKKβ was < 1 µM; at human IKKα, ≤ 10 µM.

`CCCc1cc(N2CCC(NCC(=O)Nc3cccc4ccccc34)CC2)nc2sc(C(N)=O)c(N)c12` [3-Amino-6-{4-[(naphthalen-1-ylcarbamoylmethyl)-amino]-piperidin-1-yl}-4-propyl-thieno[2,3-b] pyridine-2-carboxylic acid amide]: the results for the IC50 on human IKKβ and against human IKKα were < 1 µM and ≤ 10 µM, respectively.

For `COC(=O)c1ccc(/C=C/c2cc(N3CCC(N)CC3)nc3sc(C(N)=O)c(N)c23)cc1` [4-{(E)-2-[3-Amino-6-(4-amino-piperidin-1-yl)-2-carbamoyl-thieno[2,3-b]pyridin-4-yl]-vinyl}-benzoic acid methyl ester], the figures for the IC50 against human IKKβ and on human IKKα were < 1 µM and ≤ 10 µM, respectively.

With `CCCc1cc(N2CCC(NCC(O)c3ccc(NS(C)(=O)=O)cc3)CC2)nc2sc(C(N)=O)c(N)c12` (stereo not shown) [Example 12, 3-Amino-6-{4-[2-hydroxy-2-(4-methanesulfonylamino-phenyl)-ethylamino)-piperidin-1-yl]-4-propyl-thieno[2,3-b]pyridine-2-carboxylic acid amide], the melting point lay within 199 to 200 °C.

Turning to `CCCc1cc(N2CCC(NCC(=O)O)CC2)nc2sc(C(N)=O)c(N)c12` [[1-(3-Amino-2-carbamoyl-4-propyl-thieno[2,3-b]pyridin-6-yl)-piperidin-4-ylamino]-acetic acid], the figures for the IC50 on human IKKβ and against human IKKα were < 1 µM and ≤ 10 µM, respectively.
